The source made the active and inactive calls. The rule behind the calls is not given here.
test system: Jurkat NF-kB reporter, TCR-induced, luciferase luminescence; assay: T-cell NF-kB luciferase reporter inhibition – Jurkat cells, luminescence, dose response (AID 489035)

Row | Structure (SMILES) | IC50
1 | CCCC[C@@H](C)C[C@@H](C)C(=O)N(C)[C@@H](CC(C)C)C(=O)N[C@H](C(=O)N(C)[C@H](C(=O)N1C[C@@H](O)C[C@H]1C(=O)N1C(=O)C=C[C@@H]1C)C(C)C)C(C)OC(C)=O (some centres not stated) | 4.87 µM
2 | COC(=O)C[C@]1(C(=O)OC)CN(C#N)N(c2ccc(Cl)cc2)C12c1ccccc1-c1ccccc12 | 0.73 µM
3 | CN1/C(=C\C(=O)C[n+]2ccc3ccccc3c2)C(C)(C)c2ccccc21 | 38 µM (inactive)
4 | CN(Cc1ccccc1)C1=CC(=[N+]2CCCCC2)CC(C)(C)C1 | 20.3 µM (inactive)
5 | COc1cccc(/C=N/Nc2ccc(C(=O)O)cc2)c1O | 0.28 µM
6 | CCOC(=O)c1ccc(NC(=O)Cn2cnc3cc(C)c(C)cc32)cc1 | > 80 µM (inactive)
7 | Cc1ccc(Nc2cc(C)nn2-c2nc(C)cc(=O)[nH]2)cc1 | 0.92 µM
8 | Cc1csc2sc(-c3ccnc(SCC(=O)NCc4ccccc4)n3)c(C)c12 | 17 µM
9 | CC(C)Nc1ccc(C(CC(N)=O)NC(=O)c2ccc(Br)cc2)cc1[N+](=O)[O-] (configuration not stated) | 4.05 µM
10 | Cc1cc(C)cc(NS(=O)(=O)c2ccc(-c3cnc(C4CC4)o3)cc2)c1 | 20.5 µM (inactive)
11 | COc1ccc(C2=Nn3c([n+](C)c4ccccc43)SC2)cc1 | > 80 µM (inactive)
12 | COc1ccc(Nc2nc3cc(C)ccc3cc2C#N)c(OC)c1 | > 80 µM (inactive)
13 | CCCCc1ccc(NC(=O)c2ccc(N(C)S(C)(=O)=O)cc2)cc1 | < 0.16 µM
14 | Cc1ccc2nc(-c3ccc4c(c3)OCCO4)cn2c1 | 1.01 µM
15 | Cc1cccc(N2CCN(C(=O)c3c(-c4ccccc4Cl)noc3C)CC2)c1C | 78.6 µM (inactive)
16 | Cc1cc(-c2ccc(C)c(S(=O)(=O)N3CCN(c4ccc([N+](=O)[O-])cc4)CC3)c2)on1 | > 80 µM (inactive)
17 | COc1ccc(OC)c2c1C(=O)C(Cl)=C(Cl)C2=O | 1.65 µM
18 | COc1ccc(Nc2nc(-c3sc(C)nc3C)cs2)cc1 | 38.8 µM (inactive)
19 | CCCCC(=O)NC(c1ccc(N(C)C)cc1)c1ccc2cccnc2c1O (configuration not stated) | > 80 µM (inactive)
20 | COc1ccc(N(C(=O)c2ccccc2C)S(=O)(=O)c2cccs2)cc1 | 20 µM (inactive)
21 | CC#CC(=O)N1CCC(n2nccc2NC(=O)c2ccc3c(c2)OCO3)CC1 | > 80 µM (inactive)
22 | O=C(Nc1ccc(N2CCN(C(=O)c3ccc(Cl)cc3)CC2)cc1)c1ccc2c(c1)OCCO2 | > 80 µM (inactive)
23 | CCn1c2ccccc2c2cc(Nc3cc(C)nc4ncnn34)ccc21 | > 80 µM (inactive)
24 | COc1cccc(-c2cc(=O)c3cc(NC(=O)c4ccc(N(C)C)cc4)ccc3[nH]2)c1 | 6.22 µM
25 | Cc1ccc(NS(=O)(=O)c2ccc(C(=O)NC3CCN(Cc4ccccc4)CC3)cc2)cc1 | 19.8 µM

Row | Structure (SMILES) | IC50
26 | COc1cc(C(=O)Nc2ccc3c(c2)CCN3C(C)=O)cc(OC)c1OC | > 80 µM (inactive)
27 | O=C(Nc1ccc(S(=O)(=O)N2CCN(Cc3ccccc3)CC2)cc1)c1cnccn1 | > 80 µM (inactive)
28 | Cc1ccc(/C=C/c2ccc(N(C)C)cc2)[n+](C)c1 | > 80 µM (inactive)
29 | C#Cc1ccc([C@@H]2C=C(C(=O)N3CCN(Cc4ccccc4)CC3)O[C@H](OCCCCO)C2)cc1 | > 80 µM (inactive)
30 | CCC(=O)NC(c1cccs1)c1ccc2cccnc2c1O (configuration not stated) | 60.4 µM (inactive)
31 | Cc1nnc(N/N=C/c2ccccn2)[nH]c1=O | 1.18 µM
32 | CCOC(=O)c1[nH]c(C)c(C(=O)Nc2cc(OC)ccc2OC)c1C | > 80 µM (inactive)
33 | CCCCn1c2c(c(=N)c3c1CCC3)CCC2 | > 80 µM (inactive)
34 | CCn1c2ccccc2c2cc(NC(=O)c3cc(OC)c(OC)c(OC)c3)ccc21 | 76.2 µM (inactive)
35 | Cc1cc(C)c2nc(C)cc(N/N=C/c3ccc(O)cc3)c2c1 | 2.9 µM
36 | COc1ccc(C)cc1NS(=O)(=O)c1ccc(-c2cnc(C3CC3)o2)cc1 | > 80 µM (inactive)
37 | Cn1nc(C(C)(C)C)cc1C(=O)NCc1cc(F)cc2c1OCOC2 | > 80 µM (inactive)
38 | COc1ccc(COC(=O)c2cc([N+](=O)[O-])ccc2N2CCOCC2)cc1F | > 80 µM (inactive)
39 | CC(=O)O[C@H]1C(=O)[C@@]2(C)C([C@H](OC(=O)c3ccccc3)[C@]3(O)C[C@H](OC(=O)[C@H](O)[C@@H](NC(=O)Cc4ccccc4)c4ccccc4)C(C)=C1C3(C)C)[C@]1(OC(C)=O)CO[C@@H]1C[C@@H]2O (some centres not stated) | > 80 µM (inactive)
40 | Clc1cccc(Cl)c1OCCOCCNCc1ccccc1 | > 80 µM (inactive)
41 | CCCc1cc(C(=O)N/N=C/c2ccc(CC)s2)c2ccccc2n1 | 13 µM
42 | O=C(Nc1ccc(S(=O)(=O)N2CCCC2)cc1)c1ccc(CN2CCc3ccccc3C2)cc1 | > 80 µM (inactive)
43 | CC(=O)O[C@@]12CO[C@@H]1C[C@H](O)[C@@]1(C)C(=O)[C@H](O)C3=C(C)[C@@H](OC(=O)[C@H](O)[C@@H](NC(=O)c4ccccc4)c4ccccc4)C[C@@](O)([C@@H](OC(=O)c4ccccc4)C12)C3(C)C (some centres not stated) | 39.4 µM (inactive)
44 | O=C1c2cccc3cc([N+](=O)[O-])cc(c23)C(=O)N1CCN1CCCC1 | > 80 µM (inactive)
45 | COC(=O)c1ccc(Oc2cc(C)nc(SC)n2)cc1 | > 80 µM (inactive)
46 | CC(=O)N1c2ccc(S(=O)(=O)N3CCC(C(=O)Nc4cccc(C)n4)CC3)cc2CC1C (configuration not stated) | > 80 µM (inactive)
47 | CCOc1cc(C(=O)N/N=C/C(Br)=C/c2ccccc2)cc(OCC)c1OCC | > 80 µM (inactive)
48 | CC[n+]1cc(C)ccc1/C=C/c1ccc(N(C)C)cc1 | > 80 µM (inactive)
49 | COc1cc(/C=C/c2ccc3cccc(O)c3n2)cc(OC)c1OC | 1.59 µM
50 | Cc1ccc(C(=O)c2cc([N+](=O)[O-])ccc2N2CCOCC2)c(C)c1 | 54.5 µM (inactive)

Row | Structure (SMILES) | IC50
51 | O=C(Nc1ccc([N+](=O)[O-])cc1)Nc1ccon1 | > 80 µM (inactive)
52 | Cc1cc(C(=O)N2CC=C(c3ccccc3)CC2)c2ccccc2n1 | 75.7 µM (inactive)
53 | Cc1cccc(N=Nc2ccc(O)c3ncccc23)c1 | 6.14 µM
54 | CC(C)c1ccc(/C=N/Nc2ccc(C(=O)O)cc2)cc1 | 4.63 µM
55 | Cc1ccc(N(C)S(=O)(=O)c2ccc(-c3cnc(C4CC4)o3)cc2)cc1 | 44.6 µM (inactive)
56 | Oc1ccc2ccccc2c1/C=N/Nc1nnc(-c2ncc[nH]2)c2ccccc12 | > 80 µM (inactive)
57 | COc1ccc(NC(=O)C(=O)NCC2CCCN2S(=O)(=O)c2cccs2)cc1 (configuration not stated) | 7.15 µM
58 | COC(=O)C(Cc1ccc(N(CCCl)CCCl)cc1)N=Cc1ccccc1O (configuration not stated) | 0.65 µM
59 | CCCC(=O)NC(c1ccccc1Cl)c1ccc2cccnc2c1O (configuration not stated) | 2.81 µM
60 | COc1ccc(OC)c(C2CC(=O)c3c([nH]c(C(=O)OC(C)C)c3C)C2)c1 (configuration not stated) | > 80 µM (inactive)
61 | CCN(CC)S(=O)(=O)c1ccc(NC(=O)c2ccc(CN3CCOCC3)cc2)cc1 | > 80 µM (inactive)
62 | CC(C)CC[n+]1ccccc1/C=C/c1ccc(N(C)C)cc1 | > 80 µM (inactive)
63 | COc1cccc(N2CCN(C(=O)c3ccc(CS(=O)c4ccccc4C)o3)CC2)c1 (configuration not stated) | 16.7 µM
64 | CC(C)(C)C(=O)Nc1ccc(NC(=O)c2ccco2)nc1 | 0.81 µM
65 | COc1cc2nc(CN3CC=C(c4ccccc4)CC3)[nH]c(=O)c2cc1OC | > 80 µM (inactive)
66 | N=c1ccn(CC(=O)c2ccc(-c3ccccc3)cc2)cc1 | 54.5 µM (inactive)
67 | N#C/C(=C\c1ccc(OCc2ccc(C(=O)O)cc2)cc1)C(=O)N1CCOCC1 | 1.55 µM
68 | Oc1ccc2ccccc2c1N=Nc1ccccn1 | 1.96 µM
69 | O[C@@H]1[C@@H](O)C=C2CCN3Cc4cc5c(cc4[C@H]1C23)OCO5 (some centres not stated) | 0.84 µM
70 | Oc1ccccc1N=Nc1nc(-c2ccccc2)c(-c2ccccc2)[nH]1 | 0.82 µM
71 | O=C(Nc1ccccc1Cl)/C(Cl)=C(\Cl)S(=O)c1ccccc1 (configuration not stated) | 1.77 µM
72 | O=C1CC(c2cc(Br)ccc2F)c2cc3c(cc2N1)CCC3 (configuration not stated) | 15.6 µM
73 | CCCc1cc(C(=O)Nc2cc(C)ccc2O)no1 | > 80 µM (inactive)
74 | Cc1ccc(C(=O)O/N=C(\N)c2ccccn2)c(Cl)c1 | 1.11 µM
75 | COC(=O)c1[nH]c2ccc(Br)cc2c1NC(=O)CN1CCN(C2CCCCC2)CC1 | 4.56 µM

Row | Structure (SMILES) | IC50
76 | COc1ccc(/C=C/C(=O)c2cc(F)ccc2OC(=O)c2ccccc2)cc1OC | 2.49 µM
77 | Cc1cc(O)c2c(c1O)C(=O)[C@]13C(=C2O)C(=O)[C@@H]2[C@@H](O)[C@H]1[C@@H]1[C@H](O)[C@H]3C(=O)C3=C(O)c4c(O)cc(C)c(O)c4C(=O)[C@]312 | < 0.16 µM
78 | O=C(Nc1nc(-c2ccccn2)cs1)c1ccc(Cl)s1 | 2.64 µM
79 | O=C(c1ccc(Br)cc1)c1cc([N+](=O)[O-])ccc1N1CCOCC1 | 64.3 µM (inactive)
80 | CC(Nc1ncnc2ccccc12)c1ccccc1 (configuration not stated) | > 80 µM (inactive)
81 | COc1ccccc1N=C(C)C1=C(O)CC(c2ccccc2)CC1=O (configuration not stated) | > 80 µM (inactive)
82 | COC(=O)c1ccc2nc(Nc3nc4c(F)cc(F)cc4s3)sc2c1 | 52.9 µM (inactive)
83 | O=C(NN=Cc1c(O)ccc2ccccc12)c1ccc2c(c1)OCO2 | 26.6 µM (inactive)
84 | COC(=O)CCC(=O)NC(=S)Nc1sc(C)c(C)c1C(N)=O | > 80 µM (inactive)
85 | Cc1ccc(-c2cc(C(F)F)n3ncc(C(=O)N4CCc5ccccc54)c3n2)cc1 | > 80 µM (inactive)
86 | COC(=O)c1[nH]c2c(c1C)C(=O)CC(c1cccc(OC)c1)C2 (configuration not stated) | > 80 µM (inactive)
87 | O=C(Nc1ccc(Oc2cccnc2)nc1)c1ccc(C(F)(F)F)cc1 | > 80 µM (inactive)
88 | C=CCSc1nc2ccccc2n1C(=O)/C=C/c1cc(OC)c(OC)c(OC)c1 | 1.79 µM
89 | COc1ccc(/C=N/Nc2cc(C)nc3ccc(OC)cc23)c(OC)c1 | 2.4 µM
90 | COc1ccc(Nc2ncnc3ccc(Br)cc23)c(OC)c1 | 22 µM (inactive)
91 | COc1ccc(C(=O)N2CCN(c3ccc([N+](=O)[O-])c(NCCc4ccc(OC)c(OC)c4)c3)CC2)cc1 | > 80 µM (inactive)
92 | CCc1c(C)nc2ncnn2c1NCCc1ccc(OC)cc1 | > 80 µM (inactive)
93 | Cc1ccc(-n2ncc3c(N4CCN(c5ccccc5)CC4)ncnc32)c(C)c1 | 4.9 µM
94 | Brc1ccc2c(c1)C(C1=NCCN1)c1ccccc1CS2 (configuration not stated) | > 80 µM (inactive)
95 | Clc1ccc(CSc2nncn2-c2ccc3c(c2)OCCO3)cc1 | > 80 µM (inactive)
96 | COc1cc(C2c3cc4c(cc3CC3COC(=O)C32)OCO4)cc(OC)c1OC (configuration not stated) | > 80 µM (inactive)
97 | CCOC(=O)c1ccc2nc(Nc3nc4ccc(F)cc4s3)sc2c1 | 75.4 µM (inactive)

— PubChem BioAssay AID489035 (Sanford-Burnham Center for Chemical Genomics, 2010)
